Experimental data as given in patent US20260248771A1, “VALBENAZINE, A VMAT2 INHIBITOR, AS A FREE BASE A TOSYLATE OR DITOSYLATE SALT, FOR USE IN THE TREATMENT OF CHOREA ASSOCIATED WITH HUNTINGTON'S DISEASE” (Neurocrine Biosciences, Inc., priority 2022, published 2026).

What was measured:
Format in all cases: in vivo, human
subjects with HD [1] = test: Phase 3 study: Patient Global Impression of Severity (PGI-S)
From the text: (§1) Exploratory endpoints included: • Wearable movement sensors (in select sites; optional participation) using MC10 Inc., BIOSTAMP® NPOINT® system • Huntington Disease Health Index • Changes from the screening period baseline to each postbaseline study visit (Weeks 2 through 12) in the TMC based on site assessments • Changes from the screening period baseline to maintenance (the average of the Week 10 and Week 12 assessments) in the TMC based on video recording central rater assessments • CGI-C response at Weeks 2 through 10 • PGI-C response at Weeks 2 through 10 • The change from baseline to Weeks 4, 8, and 10 in the Neuro-QoL Upper Extremity Function T-score. • The change from baseline to Weeks 4, 8, and 10 in the Neuro-QoL Lower Extremity Function T-score • CGI-S at Weeks 2 through 12 • PGI-S at Weeks 2 through 12 • SF-36 at Week 12 • HD-HI at Week 10 and Week 12 • EQ-5D-5L at Week 10 and Week 12 • UHDRS scores for motor, behavior, and functional capacity assessment at Weeks 2 through 12 • Other UHDRS scores including functional assessment and independence scale at Week 12 • AS at Week 12 • Change from screening period in physical activity by movement sensors at the Week 10 visit period
Subjects rated the severity of their chorea at scheduled visits on a 5-point scale. The PGI-S was analyzed using the same methods as the CGI-S.

subjects with HD [2] = test: Phase 3 placebo-controlled study: UHDRS total maximal chorea (TMC) score; settings: for TMC score LS mean difference between treatment groups (valbenazine minus placebo): change from screening period baseline
From the text: As used herein, “Unified Huntington Disease Rating Scale” or “UHDRS” is the standard clinical assessment tool in Huntington disease. The UHDRS is divided into four domains: motor performance, cognitive function, behavioral abnormalities, and functional abilities. The motor section consists of 31 items assessing oculomotor, bradykinesia/rigidity, dystonia, chorea, and gait/balance. The items are rated from zero to four, with zero indicating normal findings and four indicating severe abnormalities. The range of the Total Motor Score (TMS) is 0 to 124, with higher scores indicating more severe motor impairment. The cognitive component includes the verbal fluency test, the symbol digit modalities test, and the Stroop test (color naming, word reading, and interference). Lower scores indicate worse cognitive performance. The behavioral assessment measures the frequency and severity of 11 items, which are rated from zero (almost never/absent) to four (almost always/severe). The items assess depression, anxiety, aggression, psychosis, and other behavioral abnormalities. The behavioral score ranges from 0 to 88, with higher scores indicating more severe psychiatric abnormalities. The functional domain comprises three components, namely the total functional capacity (TFC), the functional assessment scale (FAS), and the independence scale (IS). The TFC consists of five items (occupation, finances, domestic chores, activities of daily living, and care level) and ranges from 0 to 13. The FAS includes 25 yes/no questions about common daily tasks (range 0-25). The Independence Score (IS) measures the level of independence by one single score between 10 and 100. For all functional scores, lower scores indicate a worse function. See, Huntington Study Group, Unified Huntington Disease Rating Scale: reliability and consistency. Mov Disord. 1996; 11:136-142, which is incorporated by reference in its entirety.
A Phase 3, randomized, double-blind, placebo-controlled study to evaluate the efficacy, safety, and tolerability of once-daily valbenazine in subjects with HD was conducted. The study included a 4-week screening period, an 8-week dose-adjustment period, a 4-week maintenance period, and a final study visit 2 weeks following the final dose of study drug.
Valbenazine was supplied as orally administered capsules containing 20 or 40 mg of valbenazine (free base equivalents as the ditosylate salt). Subjects must swallow the capsules with approximately 4 ounces of water or other liquid, with or without food.
During the dose-adjustment period, the investigator could increase a subject's dose to the next dose level if, in the investigator's opinion, the subject has tolerated the study drug at the current dose. Doses were adjusted in a blinded manner; subjects receiving placebo will undergo the dose-adjustment process but will continue to receive placebo. Dose increases were allowed at visits at the end of Weeks 2, 4, and 6. If the subject had not tolerated the current dose, the investigator could decrease the subject's dose at any time during the dose adjustment period (the 40 mg dose can be decreased to 20 mg). Doses were to be decreased 1 dose level at a time and subjects could have multiple dose decreases during the dose-adjustment period; subjects who were unable to tolerate the 20 mg dose could remain in the study but study drug dosing was discontinued.
During the maintenance period (beginning after the Week 8 visit through the end of Week 12), the subject's dose was maintained. If the subject could not tolerate the maintenance dose, the investigator could reduce the subject's dose a single time by 1 dose level (unless the subject is receiving 20 mg); if the subject could not tolerate the lower dose, he/she could remain in the study but study drug dosing was discontinued.
The primary endpoint for the study was change from baseline to maintenance in the Unified Huntington Disease Rating Scale total maximal chorea (TMC). […]

subjects with HD [3] = test: Phase 3 study: Short Form 36 Health Survey (SF-36); settings: Week 12
From the text: as §1
The SF-36 is 36-item questionnaire that measures health on 8 dimensions. […]

COc1cc2c(cc1OC)[C@H]1C[C@@H](OC(=O)[C@@H](N)C(C)C)[C@H](CC(C)C)CN1CC2 [Valbenazine, (S)-2-amino-3-methyl-butyric acid (2R,3R,11bR)-3-isobutyl-9,10-dimethoxy-1,3,4,6,7,11b-hexahydro-2H-pyrido[2,1-a]isoquinolin-2-yl ester]
PGI-S: proportion of valbenazine-treated subjects who had no chorea symptoms (subjects with HD [1]; Week 12): chorea symptoms increased to about 27% from about 9% at baseline, | PGI-S: proportion of valbenazine-treated subjects with moderate symptoms (subjects with HD [1]; Week 12): ~29% | PGI-S: severe or very severe symptoms (subjects with HD [1]; Week 12): No valbenazine-treated subject had severe | PGI-S: proportion of valbenazine-treated subjects with mild symptoms (subjects with HD [1]; Week 12 (remained consistent from baseline)): 45%), and the proportion with moderate symptoms decreased from | onset of improvement of chorea symptoms (TMC by study visit) (subjects with HD [2]; FIG. 4, post-hoc analysis vs placebo): noted as early as week 2 | TMC score LS mean difference between treatment groups (valbenazine minus placebo) (subjects with HD [2]; Week 2, on-site assessments): minus placebo) were as follows: Week 2 (−1.26 [95% CI: −2.18, −0.34], | TMC score LS mean difference between treatment groups (valbenazine minus placebo) (subjects with HD [2]; Week 4, on-site assessments): nominal p = 0.0077), Week 4 (−2.05 [95% CI: −3.12, −0.98], | TMC score LS mean difference between treatment groups (valbenazine minus placebo) (subjects with HD [2]; Week 6, on-site assessments): nominal p = 0.0002), Week 6 (−1.69 [95% CI: −2.83, −0.55], nominal | TMC score LS mean difference between treatment groups (valbenazine minus placebo) (subjects with HD [2]; Week 8, on-site assessments): p = 0.0041), Week 8 (−2.29 [95% CI: −3.46, −1.13], nominal | TMC score LS mean difference between treatment groups (valbenazine minus placebo) (subjects with HD [2]; Week 10, on-site assessments): p = 0.0002); Week 10 (−3.10 [95% CI: −4.36, −1.84], nominal | TMC score LS mean difference between treatment groups (valbenazine minus placebo) (subjects with HD [2]; Week 12, on-site assessments): p < 0.0001), and Week 12 (−3.22 [95% CI: −4.53, −1.91], nominal | placebo-adjusted mean reduction in TMC score (subjects with HD [2]; baseline to maintenance, vs placebo): 3.2 units | LS mean change from screening period baseline to maintenance in TMC scores (subjects with HD [2]; central video rater assessments, valbenazine group): in TMC scores as assessed by the central video raters was −3.51 | TMC score treatment difference, screening period baseline to maintenance (subjects with HD [2]; central video rater assessments, valbenazine vs placebo): of −2.59 (95% CI: −3.76, −1.41); p < 0.0001 (nominal), and was consistent | TMC CFSPB @ Maintenance, LS Mean (subjects with HD [2]; change from screening period baseline to maintenance (average of Week 10 and Week 12), on-site assessments, once-daily valbenazine up to 80 mg, N=64): −4.6 | TMC CFSPB @ Maintenance, LS Mean, Difference (subjects with HD [2]; valbenazine vs placebo, on-site assessments): −3.16 | SF-36 subscales and summary scales, differences between treatment groups (subjects with HD [3]): No notable differences were observed at Week 12 between treatment | SF-36 subscales or summary scales, worsening from baseline (subjects with HD [3]; valbenazine group): No worsening from baseline was observed for the valbenazine group
